Reference: paper PMC10224201, “Characterization of Non-Specific Uptake and Retention Mechanisms of [^177Lu]Lu-PSMA-617 in the Salivary Glands” (Pharmaceuticals, 2023)

Target: T1, PSMA (PC3-PIP cells) (Homo sapiens, UniProt Q04609)
T1 construct: gene FOLH1; full length, on intact PSMA-positive PC3-PIP prostate cancer cells (PC3-Flu as PSMA-negative control)
Experiment: competition with […]Lu-PSMA-617 on cells, gamma counting
Assay type: cell-based
Settings: read-out: % of control binding at 9000 μM

T1 sequence (Q04609 whole entry): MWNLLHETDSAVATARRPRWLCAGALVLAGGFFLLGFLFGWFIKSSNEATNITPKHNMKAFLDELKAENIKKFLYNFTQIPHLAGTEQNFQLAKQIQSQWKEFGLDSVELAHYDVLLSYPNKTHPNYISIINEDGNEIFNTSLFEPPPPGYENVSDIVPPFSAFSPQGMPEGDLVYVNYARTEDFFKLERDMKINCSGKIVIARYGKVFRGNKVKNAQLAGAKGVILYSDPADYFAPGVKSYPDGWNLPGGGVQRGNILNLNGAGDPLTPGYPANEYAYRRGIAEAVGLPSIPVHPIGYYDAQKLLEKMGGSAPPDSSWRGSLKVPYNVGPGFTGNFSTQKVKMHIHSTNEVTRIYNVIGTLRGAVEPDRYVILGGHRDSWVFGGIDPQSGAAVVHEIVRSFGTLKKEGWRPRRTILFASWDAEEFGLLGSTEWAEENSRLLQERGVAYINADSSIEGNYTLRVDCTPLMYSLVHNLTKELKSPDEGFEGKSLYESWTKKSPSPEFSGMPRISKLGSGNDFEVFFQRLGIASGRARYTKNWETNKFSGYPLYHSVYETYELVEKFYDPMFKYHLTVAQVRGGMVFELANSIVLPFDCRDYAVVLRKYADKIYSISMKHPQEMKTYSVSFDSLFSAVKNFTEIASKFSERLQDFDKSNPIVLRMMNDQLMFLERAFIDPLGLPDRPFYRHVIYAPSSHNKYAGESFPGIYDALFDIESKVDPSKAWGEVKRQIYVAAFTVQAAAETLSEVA

- remaining activity at 9000 µM: 24.9 ± 3.64%
Structure (SMILES): N[C@@H](CCC(=O)O)C(=O)O [monosodium glutamate]
